# Assay results reported in patent US5962533A, “Hydroxy polyamines” (priority 1996, dated 1999).
# Values joined by “and” are separate entries in the source; they are usually repeats but may differ in a detail not shown here. Equal values may be shown once. Where a name gives a salt, the structure may show the parent alone. Read-outs that look alike come from different tables or passages of the source.
# How the values were obtained:
# [1] = test system: polyamine transport apparatus; assay: Competition with radiolabeled spermidine for uptake into L1210 cells (Ki); format: cell-based, Murine; settings: L1210 cells, estimated from Lineweaver-Burke plots, read-out: Ki, [3H]-spermidine transport
# Method: The same cell line was utilized to evaluate the tetraamines's competition with radiolabeled spermidine for the polyamine uptake apparatus (Ki). The Ki values here are the concentrations of drugs required to inhibit the uptake of radioactive spermidine transport by 50% (Table 1).
# Uptake Determinations. The polyamine derivatives were studied for their ability to compete with [^3 H]SPD or [^14 C]SPD for uptake into L1210 leukemia cells in vitro. Cell suspensions were incubated in 1 ml of RPMI-1640 containing 1, 2, 4, 6, 8 and 10 μm radiolabeled SPD alone or with the additional presence of 10, 25 and 50 μm polyamine analogue for 20 minutes at 37° C. At the end of the incubation period, tubes were centrifuged at 900 g for 5 minutes at 0-4° C. The pellet was washed twice with 5 ml of cold RPMI-1640 containing 1 mm SPD, dissolved in 200 μl of 1N NaOH at 60° C. for 1 hour, and neutralized with 1N HCl. The material was transferred to a vial for scintillation counting.
# [2] = Chronic toxicity, one dose per day for five days; format: in vivo
# Method: In the chronic toxicity regimen, mice were administered the polyamine analogue as one dose per day for five days. Appetite, weight and overall physical appearance were recorded at the time of each injection. After the treatment regimen had been completed, the animals were observed an additional 10 days. The chronic toxicity dosing regimen was set up so that at least one test group was presented with a high fraction of lethalities.
# [3] = test system: castor oil-induced diarrhea; assay: Castor oil-induced diarrhea; format: in vivo, rat
# Excerpt: Castor Oil-Induced Diarrhea. Male Sprague-Dawley rats (350-400 g) were fasted overnight in hanging wire cages and allowed free access to water.
# [4] = test system: L1210 cells; assay: L1210 growth inhibition, IC50 determinations; format: cell-based, Murine
# Method: IC50 Determinations. Cells were grown in 25 cm^2 tissue culture flasks in a total volume of 10 ml. Cultures were treated while in logarithmic growth (0.5-1.0×10^5 cells/ml) with the polyamine derivative diluted in sterile water and filtered through a 0.2 μm filter.
# After the indicated time periods, cells were removed from the incubator for counting. Cell number was determined by electronic particle counting (Model ZF coulter counter, Coulter Electronics, Hialeah, Fla.) and confirmed periodically with hemocytometer measurements.
# The percentage of control growth was determined as follows: [formula]
# [5] = Metabolism of (HO)2 DEHSPM v. DEHSPM in mouse liver and kidney (HPLC); format: in vivo
# Method: Metabolism of (HO)2 DEHSPM v. DEHSPM in Mouse Liver and Kidney. […] In ease case, animals were sacrificed for HPLC analysis one day after the final dose.
# HPLC Analysis of Polyamines. Various tissues including the liver and kidney were prepared for HPLC analysis of polyamine content. In order to facilitate their handling, the organs were submerged in liquid nitrogen. Once frozen and weighed, the tissues were homogenized (Tissuemizer, Tekmar, Cincinnati, Ohio) in 1.2N perchloric acid (containing 1,7-diaminoheptane internal standard) in a 1:20 (w/v) ratio. The tissue homogenates were then freeze-thawed three times and stored in a -70° C. freezer until HPLC analysis was performed.
# Each chromatographic assay included calibration standards which were treated in the same manner as the samples. […] The concentration of each polyamine was calculated from the peak area by calibration curves obtained by non-weighted least squares linear regression. Peak area and linear regression calculations were performed on a Macintosh Centris 650 with Rainin Dynamax HPLC Method Manager software (Rainin Instrument Co., Ridgefield, N.J.).
# [6] = 24 h after regimen, normalized for 30 g mouse
# [7] = liver and kidneys, 24 h after regimen, 30 g mouse
# [8] = mouse, one day after subchronic equimolar i.p. regimen
structure (smiles),measurement,setting,value
"CCNCC[C@@H](O)CNCCCCNC[C@H](O)CCNCC [(HO)2 DEHSPM, N^1,N^14 -Diethyl-3(R),12(R)-dihydroxyhomospermine tetrahydrochloride]",Ki,[1]; listed as (OH)2 -DEHSPM,1800 nM
same,Ki,[1],2000 nM and 1800 nM
same,# deaths/# animals,[2]; 70 mg/kg per day×5 days,0/5
same,# deaths/# animals,[2]; 80 mg/kg per day×5 days,0/5
same,# deaths/# animals,[2]; 90 mg/kg per day×5 days,0/10
same,# deaths/# animals,[2]; 100 mg/kg per day×5 days,1/5
same,# deaths/# animals,[2]; 120 mg/kg per day×5 days,2/5
same,deaths,"[2]; 20, 40 and 60 mg/kg per day×5 days, groups of six animals",No deaths
same,LD40,[2]; mice,120 mg/kg per day×5 days
same,necropsy conclusion in severely affected animals,"[2]; mouse, in vivo",potently blocks gastric transport
same,LD50,"[2]; mouse, in vivo, mice, subchronic regimen, read-out: LD50 estimated from the slope of the toxicity curve",130 mg/kg
same,prevention of castor oil-induced diarrhea,"[3]; 1 mg/kg, rat",not an effective anti-diarrheal agent
same,prevention of castor oil-induced diarrhea,"[3]; 2.5 mg/kg, rat, six hour observation",partially effective
same,prevention of castor oil-induced diarrhea,"[3]; 5 mg/kg subcutaneous, rat, six hour assay",as effective as DEHSPM at preventing diarrhea
same,prevention of castor oil-induced diarrhea,"[3]; 18 kg/mg, rat",effectively prevented the onset of diarrhea
same,minimal effective dose,"[3]; Rattus norvegicus, sc, read-out: minimum effective dose for prevention of diarrhea",5 mg/kg
same,stool output / diarrhea during 6 hour assay (FIG. 8),"[3]; subcutaneous injection 30 minutes before castor oil 5 ml/kg, rat",virtually no stool output
same,IC50,"[4]; Mus musculus, L1210, 96 h, read-out: IC50 96 h, L1210 cells, 96 h",70 nM
same,IC50,"[4]; Mus musculus, read-out: IC50 48 h, L1210 cells, 48 h",600 nM
same,IC50,"[4]; read-out: IC50 96 h, L1210 cells, 96 h",50 to 90 nM
same,"% of total dose present as total drug + metabolite, Kidneys",[5]; [6],4.04%
same,"% of total dose present as total drug + metabolite, Liver",[5]; [6],5.96%
same,"% of total dose present as unmetabolized parent drug, Kidneys",[5]; [6],.357 ± 0.34%
same,"% of total dose present as unmetabolized parent drug, Liver",[5]; [6],3.39 ± 0.48%
same,"Amount of total dose present as dideethylated metabolite HSPM/(HO)2 HSPM, Kidneys",[5]; [6],0.030 µmol
same,"Amount of total dose present as dideethylated metabolite HSPM/(HO)2 HSPM, Liver",[5]; [6],0.166 µmol
same,"Amount of total dose present as total drug + metabolite, Kidneys",[5]; [6],0.261 µmol
same,"Amount of total dose present as total drug + metabolite, Liver",[5]; [6],0.385 µmol
same,"Amount of total dose present as unmetabolized parent drug, Kidneys",[5]; [6],0.231 µmol
same,"Amount of total dose present as unmetabolized parent drug, Liver",[5]; [6],0.219 µmol
same,"% of total dose present as total drug + metabolite, Both Tissues",[5]; [7],10.01%
same,"% of total dose present as unmetabolized parent drug, Both Tissues",[5]; [7],6.96%
same,"Amount of total dose present as dideethylated metabolite HSPM/(HO)2 HSPM, Both Tissues",[5]; [7],0.196 µmol
same,"Amount of total dose present as total drug + metabolite, Both Tissues",[5]; [7],0.646 µmol
same,"Amount of total dose present as unmetabolized parent drug, Both Tissues",[5]; [7],0.450 µmol
same,level of unchanged drug in kidney,[5]; [8],481±46 nmol/g wet weight
same,level of unchanged drug in liver,[5]; [8],83.6±11.7 nmol/g wet weight and 84±12 nmol/g wet weight
